Source: patent US20120276196A1, “Pharmaceutical Compositions of a Neuroactive Steroid and Methods of Use Thereof” (Euro-Celtique S.A., priority 2005, published 2012)

Experiments:
[1] = escalating single-dose, randomized, double blind, placebo-controlled pharmacokinetic study, oral suspension, healthy male subjects; settings: human, plasma
Source text: The study is designed as an escalating single-dose, randomized, double-blind, placebo-controlled study in healthy adult male subjects.
The subjects will be monitored closely for safety and be tested using various pharmacodynamic measures during this phase. E.g. blood and urine samples will be collected for determination of the concentration of the active agent and its metabolites.
Pharmacokinetic samples will be analyzed after each cohort to examine the extent of drug exposure. Blood samples will be collected for determination of the active agent, its metabolites, and related substances at the following time-points: 0.25, 0.5, 1.0, 1.5, 2, 3, 4, 5, 6, 8, 10,12, 24, 30, 36, 48, 60, 72, 84 hr after dosing, and at End of Study. Up to 5 additional post-dosing blood sampling(s) may be performed and/or the timing of pharmacokinetic parameters draws may change if indicated after the analysis of blood samples from previous cohort(s). Samples will be collected after vital signs, pulse oximetry, and ECG are obtained.

[2] = clinical; settings: male, human, in vivo
[3] = human, in vivo, po

For `COC[C@@]1(O)CC[C@]2(C)C3CC[C@@]4(C)C(CC[C@@H]4C(=O)Cn4ccnc4)C3CC[C@H]2C1` (stereo partly drawn) [3α-hydroxy-3β-methoxymethyl-21-(1′-imidazolyl)-5α-pregnan-20-one], the half-life ([1]; 1 mg) was 828 min, the half-life ([1]; 10 mg) was 786 min and the half-life ([1]; 30 mg) was 786 min. For the same compound, the half-life ([1]; 60 mg) was 750 min, the Tmax [2] was 1.5 to 5 h and the Cmax ([2]; 1 mg) was 1 to 1.8 ng/mL. It also gave a Cmax ([2]; 3 mg) of 4 to 8 ng/mL, a Cmax ([2]; 10 mg) of 16.9 to 46.3 ng/mL and a Cmax ([2]; 30 mg) of 95.6 to 154 ng/mL. For the same compound, the Cmax ([2]; 60 mg) was 218 to 479 ng/mL, the Tmax ([2]; po) was 1 to 3 h and the half-life ([2]; po) was roughly 720 min. The Cmax ([2]; po, 1 mg) was 1.3 ng/mL, the Tmax ([2]; po, 1 mg) was 3.1 h and the AUC(0-t) ([2]; po, 1 mg, AUC (0-24)) was 16.9 ng·h/mL. It also gave an AUC(0-t) ([2]; po, 1 mg, AUC (0-last)) of 22.4 ng·h/mL, a Cmax ([2]; po, 3 mg) of 5.7 ng/mL and a Tmax ([2]; po, 3 mg) of 2.8 h. It also gave a half-life ([2]; po, 3 mg) of 528 min, an AUC(0-t) ([2]; po, 3 mg, AUC (0-24)) of 54.6 ng·h/mL and an AUC(0-t) ([2]; po, 3 mg, AUC (0-last)) of 65.6 ng·h/mL. For the same compound, the Cmax ([2]; po, 10 mg) was 26.5 ng/mL, the Tmax ([2]; po, 10 mg) was 1.7 h and the AUC(0-t) ([2]; po, 10 mg, AUC (0-24)) was 213 ng·h/mL. For the same compound, the AUC(0-t) ([2]; po, 10 mg, AUC (0-last)) was 254 ng·h/mL, the Cmax ([2]; po, 30 mg) was 120 ng/mL and the Tmax ([2]; po, 30 mg) was 2.1 h. For the same compound, the AUC(0-t) ([2]; po, 30 mg, AUC (0-24)) was 952 ng·h/mL, the AUC(0-t) ([2]; po, 30 mg, AUC (0-last)) was 1120 ng·h/mL and the Cmax ([2]; po, 60 mg) was 330 ng/mL. It also gave a Tmax ([2]; po, 60 mg) of 1.8 h, an AUC(0-t) ([2]; po, 60 mg, AUC (0-24)) of 2330 ng·h/mL and an AUC(0-t) ([2]; po, 60 mg, AUC (0-last)) of 2610 ng·h/mL. For the same compound, the “Cmax levels between subjects” value [3] was “variable” and the “Cmax values versus dose” value [3] was “greater than dose-proportional”.
